Measurements from US20240000756A1, “METHODS AND COMPOUNDS FOR TREATMENT OF AUTISM SPECTRUM DISORDER” (Crestone, Inc., priority 2020, published 2024).
≈ marks a conversion by molar mass, not a printed value. Like-named read-outs stand apart in the source and are kept apart here.

Assays:
C. difficile [1] = details: cited from earlier work
C. perfringens = C. perfringens clinical isolates, agar dilution; cited from earlier work
[2] = Multiple ascending dose Phase 1b study, safety and pharmacokinetics in healthy adults; assay type: in vivo, human; details: for half-life / Tmax: both sexes, human, plasma, oral
Experimental: The study was performed at Quintiles Phase I Services in Overland Park, KS. […] The secondary objective was to determine the plasma pharmacokinetic characteristics of CRS3123 after multiple oral doses. An exploratory endpoint was the evaluation of the effect of CRS3123 on fecal microbiome.

[3] = Single ascending dose Phase 1a study, safety and pharmacokinetics in healthy adults
C. difficile [4] = details: C. difficile clinical isolates, agar dilution; cited from earlier work
[5] = single dose, all TEAEs, combined
[6] = single dose, related to CRS3123 treatment, combined

SMILES: O=c1cc(NCCCN[C@@H]2CCOc3c(Br)cc(Br)cc32)[nH]c2ccsc12 [CRS3123]
- activity in hamster model of C. difficile infection (C. difficile [1]): active
- MIC90 (C. perfringens): 0.25 µg/mL (≈ 0.487 µM)
- dose proportionality of exposure (Cmax, AUC0-12 Day 1; Cmax,ss, AUC0-τ Day 10) ([2]; 200-600 mg BID): less than proportional to the increase in dose
- half-life ([2]; following a single dose, across 3 dose groups, read-out: geometric mean t1/2): 3.01 to 3.53 h
- half-life ([2]; following 10 days of twice daily administration, across 3 dose groups, read-out: geometric mean t1/2,ss): 4.71 to 6.32 h
- Tmax ([2]; following 10 days of twice daily administration, across 3 dose groups, read-out: median Tmax,ss): 1 to 2 h
- Tmax ([2]; following a single dose, across 3 dose groups (200, 400, 600 mg), read-out: median Tmax): 2 to 3 h
- QTcF interval ([2]; multiple ascending dose): no prolongation
- overall safety and tolerability ([2]; multiple ascending dose, 200-600 mg BID, 10 days): generally safe and well tolerated
- accumulation ([2]; multiple twice daily dosing for 10 days): minimal accumulation
- fate of unchanged drug ([2]; single and multiple dose): retained in the GI tract and excreted in feces
- deaths, SAEs, severe or life-threatening TEAEs ([3]; single dose): no deaths, SAEs, or severe or life-threatening TEAEs
- moderate TEAEs ([3]; single dose): 7.4%
- overall safety and tolerability ([3]; single dose study): safe and well-tolerated
- subjects reporting treatment-emergent adverse events (TEAEs) ([3]; single dose, CRS3123-treated subjects combined): 93.3%
- TEAE frequency: abnormal urine analysis [3, 5]: 20.0%
- TEAE frequency: decreased hemoglobin [3, 5]: 23.3%
- TEAE frequency: headache [3, 5]: 20.0%
- TEAE frequency: positive urine leukocyte esterase [3, 5]: 16.7%
- treatment-related TEAE: abnormal urine analysis [3, 6]: 16.7%
- treatment-related TEAE: decreased blood calcium [3, 6]: 13.3%
- treatment-related TEAE: decreased hemoglobin [3, 6]: 16.7%
- treatment-related TEAE: headache [3, 6]: 20.0%
- dose proportionality of systemic exposure ([3]; single oral dose 100-1200 mg): did not appear to be dose-proportional
- fraction absorbed ([3]; single oral dose 100-1200 mg, healthy fasted subjects): low but detectable fraction
- metabolism ([3]; single oral dose, mass spectral analysis): metabolized in the body via glucuronidation
- MIC90 (C. difficile [4]): 1.0 µg/mL (≈ 1.95 µM)
